Laboratory results from patent US20080050720A1 (priority 2003, published 2008).

Legend:
YMR325W gene reporter = assay: 96-well liquid high-throughput like assay with YMR325W-GFP reporter strain; format: cell-based, S. cerevisiae; details: serial 1 to 2 dilutions; initial Lovastatin 30 ug/ml, Miconazole 25 ug/ml, Fenpropimorph 50 ug/ml, Tunicamycin 25 ug/ml; 30° C., about 24 hours
Method: 1. A YMR325W gene reporter was transformed into wild-type S. Cerevisiae strain ABY12 and grown on solid Casamino Acids media plates.
2. A culture from the solid media plate was used to inoculate a 50 ml liquid culture in Casamino Acids media. The liquid culture was grown overnight at 30° C. to an OD600=8, and then was diluted in Casamino Acids media to an OD600=1.
3. Drug-like agents Lovastatin, Miconazole, and Fenpropimorph, sterol biosynthesis inhibitors that target different molecular steps in the sterol biosynthesis pathway, and UDP-N-acetyl-glucosamine-1-P transferase (GPT) inhibitor Tunicamycin, a negative control, were used in the assay. Each of the four drugs was added to individual wells (one drug per well) in the second column of a 96-well assay plate and serially diluted (1 to 2) into Casamino Acids media plus 2% DMSO in columns 3-12. The initial concentrations of the drugs were as follows: Lovastatin: 30 ug/ml, Miconazole: 25 ug/ml, Fenpropimorph: 50 ug/ml, and Tunicamycin: 25 ug/ml. The first column of the plate was used as a “no drug” control, containing only Casamino Acids media plus 2% DMSO. Each well contained a final volume of 100 ul of media and/or media plus drug.
4. […]
5. After the 24 hour incubation the 96-well assay plate was imaged in a Molecular Dynamics Fluorimager SI to measure the fluorescence from the YMR325W-GFP reporter.

[1] = test system: lawn of the YMR325W reporter strain (S. Cerevisiae strain ABY12); assay: Solid plate halo assay, growth of reporter strain lawn; format: cell-based; details: paper disc; 20 ul of 50 ug/ml Miconazole or 20 ul of 1500 ug/ml Lovastatin; 30° C.
Method: (§1) The assay was designed to mimic assays of natural product producing strains in the presence of ABY12 reporter carrying strains.
(§2) 1. A YMR325W reporter was transformed into wild-type S. Cerevisiae strain ABY12 and grown on a solid Casamino Acids media plate.
(§3) 2. A culture from the solid media plate was used to inoculate a 50 ml liquid culture in Casamino Acids media. The liquid culture was grown overnight at 30° C. to a final OD600=8, and then diluted in Casamino Acids media to an OD600=1, or about 1×10^7 cells per milliliter. Five-hundred microliters of cell culture (about 5×10^6 cells) was spread evenly over the surface of each of two 100 mm solid agar-Casamino-acids-media plates to form a lawn of the YMR325W reporter strain on each plate.
3. Two 6 mm diameter blank paper discs (Becton Dickinson #231039), evenly spaced apart, were placed on top of the agar surface of each plate. On one plate 20 ul of 50 ug/ml of the sterol biosynthesis inhibitor Miconazole was spotted onto one of the two paper discs and 20 ul of 10% DMSO was spotted on the other paper disc as a control. On the other plate 20 ul of 1500 ug/ml Lovastatin was spotted onto one of the two paper discs and 20 ul of 10% DMSO was spotted on the other paper disc as a control. […]
(§4) 4. After a 72 hour incubation the assay plates were imaged in a Molecular Dynamics Fluorimager SI to measure the fluorescence from the GFP reporters.

YMR325W reporter = assay: Solid plate halo assay, fluorescence from the GFP reporter; format: cell-based, S. cerevisiae; details: for induction of YMR325W reporter (zone of high fluorescence at the edge of halo): paper disc, 20 ul of 50 ug/ml Miconazole or 20 ul of 1500 ug/ml Lovastatin, 30° C.
Method: as §1, §2, §3
3. Two 6 mm diameter blank paper discs (Becton Dickinson #231039), evenly spaced apart, were placed on top of the agar surface of each plate. On one plate 20 ul of 50 ug/ml of the sterol biosynthesis inhibitor Miconazole was spotted onto one of the two paper discs and 20 ul of 10% DMSO was spotted on the other paper disc as a control. On the other plate 20 ul of 1500 ug/ml Lovastatin was spotted onto one of the two paper discs and 20 ul of 10% DMSO was spotted on the other paper disc as a control. The plates were incubated at 30° C. overnight.
as §4

Row | Molecule | fluorescence from the YMR325W-GFP reporter (YMR325W gene reporter) | growth inhibition of the lawn (halo of no growth) [1] | size of zone of fluorescence, Lovastatin compared with Miconazole (YMR325W reporter; 20 ul of 1500 ug/ml Lovastatin versus 20 ul of 50 ug/ml Miconazole) | induction of YMR325W reporter (zone of high fluorescence at the edge of halo) (YMR325W reporter)
1 | Tunicamycin | No increase in fluorescence | – | – | –
2 | CC[C@H](C)C(=O)O[C@H]1C[C@@H](C)C=C2C=C[C@H](C)[C@H](CC[C@@H]3C[C@@H](O)CC(=O)O3)[C@H]21 [Lovastatin] | – | inhibited the growth | much larger zone of fluorescence | significantly induced
3 | Clc1ccc(COC(Cn2ccnc2)c2ccc(Cl)cc2Cl)c(Cl)c1 (stereo not drawn) [Miconazole] | – | inhibited the growth | – | significantly induced
